The values below come from patent US20040082635A1, “Fused cyclic compounds and medicinal use thereof” (priority 2001, published 2004).

Where a name gives a salt, the structure may show the parent alone. Some results are limits rather than exact numbers.

This experiment has as its target T1, HCV polymerase (Hepatitis C virus genotype 1b, UniProt P26663).
T1 construct: a region encoding NS5B (591 amino acids; J Virol 1991 Mar, 65(3), 1105-13) was amplified by PCR; 6 His (N); made in house; host or cells: Escherichia coli
Nature of the experiment: biochemical. Particulars: read-out: HCV polymerase inhibitory activity IC50.

T1 sequence (P26663 2420-3010): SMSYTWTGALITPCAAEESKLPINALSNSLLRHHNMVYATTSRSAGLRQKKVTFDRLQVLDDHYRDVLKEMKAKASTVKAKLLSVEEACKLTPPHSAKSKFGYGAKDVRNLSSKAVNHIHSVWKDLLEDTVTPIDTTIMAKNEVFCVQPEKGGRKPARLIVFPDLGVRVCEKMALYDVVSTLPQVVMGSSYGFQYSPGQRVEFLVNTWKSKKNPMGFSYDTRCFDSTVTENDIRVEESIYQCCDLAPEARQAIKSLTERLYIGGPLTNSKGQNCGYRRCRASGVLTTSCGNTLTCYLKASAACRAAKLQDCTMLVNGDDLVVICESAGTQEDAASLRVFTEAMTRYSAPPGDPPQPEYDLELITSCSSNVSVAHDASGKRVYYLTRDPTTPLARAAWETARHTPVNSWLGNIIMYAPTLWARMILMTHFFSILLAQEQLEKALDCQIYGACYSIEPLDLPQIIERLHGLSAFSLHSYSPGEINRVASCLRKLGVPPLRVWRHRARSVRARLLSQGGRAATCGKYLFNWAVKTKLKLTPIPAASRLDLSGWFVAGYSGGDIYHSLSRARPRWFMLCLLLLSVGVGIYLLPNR

`CN(c1ccc(-c2ccc(Cl)cc2)c(COc2ccc(-c3nc4cc(C(=O)O)ccc4n3C3CCCCC3)c(F)c2)c1)S(C)(=O)=O` [Example 456, 2-[4-{2-(4-chlorophenyl)-5-[N-methyl-N-(methylsulfonyl)amino]benzyloxy}-2-fluorophenyl]-1-cyclohexylbenzimidazole-5-carboxylic acid hydrochloride]: the IC50 turned out to be 17 nM.
The figure for `COc1cc(OCc2ccccc2)ccc1-c1nc2cc(C(=O)O)ccc2n1C1CCCCC1` [Example 179, 2-(4-benzyloxy-2-methoxyphenyl)-1-cyclohexylbenzimidazole-5-carboxylic acid] is 630 nM; for `O=C(O)c1ccc2c(c1)nc(-c1ccc(OCc3cc(Cl)ccc3-c3ccccc3)cc1F)n2C1CCCCC1` [Example 146, 2-{4-(3-chloro-6-phenylbenzyloxy)-2-fluorophenyl}-1-cyclohexylbenzimidazole-5-carboxylic acid] it is 43 nM; for `CN(C)C(=O)c1ccc(C(Oc2ccc(-c3nc4cc(C(=O)O)ccc4n3C3CCCCC3)c(F)c2)c2ccc(C(=O)N(C)C)cc2)cc1` [Example 301] it is 17 nM.
The figure for `O=C(O)c1ccc2c(c1)nc(-c1ccc(OCc3cc(C(=O)N4CCC(O)CC4)sc3-c3ccc(F)cc3)cc1F)n2C1CCCCC1` [Example 433, 2-{4-[{2-(4-fluorophenyl)-5-(4-hydroxypiperidin-1-ylcarbonyl)thiophen-3-yl}methoxy]-2-fluorophenyl}-1-cyclohexylbenzimidazole-5-carboxylic acid hydrochloride] is 14 nM; for `O=C(O)c1ccc2c(c1)nc(-c1ccc(CCc3ccccc3)cc1)n2C1CCCCC1` [Example 77, 1-cyclohexyl-2-(4-phenethylphenyl)benzimidazole-5-carboxylic acid] it is 510 nM; for `CC(C)N(C)C(=O)c1ccc(-c2ccc(Cl)cc2)c(COc2ccc(-c3nc4cc(C(=O)O)ccc4n3C3CCCCC3)cc2)c1` [Example 331, 2-{4-[2-(4-chlorophenyl)-5-(N-isopropyl-N-methylcarbamoyl)-benzyloxy]phenyl}-1-cyclohexylbenzimidazole-5-carboxylic acid hydrochloride] it is 17 nM.
With `CC1(C)COC(c2ccc(-c3ccc(Cl)cc3)c(COc3ccc(-c4nc5cc(C(=O)O)ccc5n4C4CCCCC4)cc3)c2)=N1` [Example 353, 2-{4-[2-(4-chlorophenyl)-5-(4,4-dimethyl-2-oxazolin-2-yl)benzyloxy]phenyl}-1-cyclohexylbenzimidazole-5-carboxylic acid dihydrochloride] the figure was 23 nM; with `COc1ccc(-c2ccc(Cl)cc2)c(COc2ccc(-c3cc4cc(C(=O)O)ccc4n3C3CCCCC3)cc2)c1` [Example 502, 2-{4-[2-(4-chlorophenyl)-5-methoxybenzyloxy]phenyl}-1-cyclohexyl-1H-indole-5-carboxylate acid], 24 nM.
`CN(C)C(=O)COCc1nc(-c2ccc(F)cc2)c(COc2ccc(-c3nc4cc(C(=O)O)ccc4n3C3CCCCC3)cc2)s1` [Example 426, 2-{4-[{2-[{(dimethylcarbamoyl)methoxy}methyl]-4-(4-fluorophenyl)thiazol-5-yl}methoxy]phenyl}-1-cyclohexylbenzimidazole-5-carboxylic acid hydrochloride]: the IC50 is 53 nM.
With `CCS(=O)(=O)N(C)c1ccc(-c2ccc(Cl)cc2)c(COc2ccc(-c3nc4cc(C(=O)O)ccc4n3C3CCCCC3)c(F)c2)c1` [Example 464, 2-[4-{2-(4-chlorophenyl)-5-[N-(ethylsulfonyl)-N-methylamino]-benzyloxy}-2-fluorophenyl]-1-cyclohexylbenzimidazole-5-carboxylic acid hydrochloride] the figure was 30 nM.
Take `O=C(O)c1ccc2c(c1)nc(-c1ccc(Oc3cccc(OCc4ccccn4)c3)cc1)n2C1CCCCC1` [Example 187, 1-cyclohexyl-2-{4-[3-(2-pyridylmethoxy)phenoxy]phenyl}-benzimidazole-5-carboxylic acid]: the IC50 was 56 nM.
With `O=C(O)c1ccc2c(c1)nc(-c1ccc(OCc3cc(C(=O)NCCO)ccc3-c3ccc(Cl)cc3)cc1F)n2C1CCCCC1` [Example 288, 2-{4-[2-(4-chlorophenyl)-5-(2-hydroxyethyl)carbamoylbenzyloxy]-2-fluorophenyl}-1-cyclohexylbenzimidazole-5-carboxylic acid] the figure was 13 nM.
The figure for `Cc1ccc(C(Oc2ccc(-c3nc4cc(C(=O)O)ccc4n3C3CCCCC3)cc2)c2ccc(C)cc2)cc1` [Example 133, 2-{4-[bis(4-methylphenyl)methoxy]phenyl}-1-cyclohexylbenzimidazole-5-carboxylic acid] is 120 nM.
The figure for `CC(C)NC(=O)c1ccc(COc2ccc(-c3nc4cc(C(=O)O)ccc4n3C3CCCCC3)cc2)c(-c2ccc(Cl)cc2)c1` [Example 350, 2-{4-[2-(4-chlorophenyl)-4-(isopropylcarbamoyl)benzyloxy]phenyl}-1-cyclohexylbenzimidazole-5-carboxylic acid hydrochloride] is 20 nM; for `Cc1nc(C)c(COc2cccc(Oc3ccc(-c4nc5cc(C(=O)O)ccc5n4C4CCCCC4)cc3)c2)s1` [Example 221, 1-cyclohexyl-2-{4-[3-{(2,4-dimethyl-5-thiazolyl)methoxy}phenoxy]-phenyl}benzimidazole-5-carboxylic acid] it is 58 nM; for `COC(=O)c1ccc2c(c1)nc(-c1ccc(OCc3cc(C(=O)N(C)C)ccc3-c3ccc(Cl)cc3)cc1F)n2C1CCCCC1` [Example 303, methyl 2-{4-[2-(4-chlorophenyl)-5-(dimethylcarbamoyl)benzyloxy]-2-fluorophenyl}-1-cyclohexylbenzimidazole-5-carboxylate] it is 100 nM.
As to `CC(CO)NC(=O)c1ccc(-c2ccc(Cl)cc2)c(COc2ccc(-c3nc4cc(C(=O)O)ccc4n3C3CCCCC3)c(F)c2)c1` (stereo not drawn) [Example 381, 2-{4-[2-(4-chlorophenyl)-5-{(1-hydroxypropan-2-yl)carbamoyl}-benzyloxy]-2-fluorophenyl}-1-cyclohexylbenzimidazole-5-carboxylic acid hydrochloride], the IC50 came to 11 nM.
`O=C(O)c1ccc2c(c1)nc(-c1ccc(Oc3cccc(OCc4ccc(Cl)cc4)c3)cc1)n2C1CCCCC1` [Example 201, 2-{4-[3-(4-chlorobenzyloxy)phenoxy]phenyl}-1-cyclohexylbenzimidazole-5-carboxylic acid]: the IC50 was found to be 140 nM.
Turning to `O=C(O)c1ccc2c(c1)nc(-c1ccc(OCc3cc(C(=O)N4CCC(O)CC4)ccc3-c3ccc(Cl)cc3)cc1F)n2C1CCCCC1` [Example 289, 2-{4-[2-(4-chlorophenyl)-5-(4-hydroxypiperidino)-carbonylbenzyloxy]-2-fluorophenyl}-1-cyclohexylbenzimidazole-5-carboxylic acid], the half-inhibitory concentration (IC50) is under 10 nM.
Consider `CC(C)(C)c1ccc(-c2ccc(Cl)cc2COc2ccc(-c3nc4cc(C(=O)O)ccc4n3C3CCCCC3)cc2)cc1` [Example 145, 2-{4-[2-(4-tert-butylphenyl)-5-chlorobenzyloxy]phenyl}-1-cyclohexylbenzimidazole-5-carboxylic acid], for which the IC50 is 88 nM.
The figure for `CNC(=O)c1ccc(-c2ccc(Cl)cc2)c(COc2ccc(-c3nc4cc(C(=O)O)ccc4n3C3CCCCC3)cc2)c1` [Example 248, 2-{4-[2-(4-chlorophenyl)-5-methylcarbamoylbenzyloxy]phenyl}-1-cyclohexylbenzimidazole-5-carboxylate hydrochloride] is 12 nM; for `O=C(O)c1ccc2c(c1)nc(-c1ccc(/C=C/c3ccccc3)cc1)n2C1CCCCC1` [Example 11, 1-cyclohexyl-2-{4-[(E)-2-phenylvinyl]phenyl}-benzimidazole-5-carboxylic acid] it is 530 nM; for `O=C(O)c1ccc2c(c1)nc(-c1ccc(Oc3cccc(OCC(=O)N4CCCCC4)c3)cc1)n2C1CCCCC1` [Example 197, 1-cyclohexyl-2-{4-[3-(piperidinocarbonylmethoxy)phenoxy]-phenyl}benzimidazole-5-carboxylic acid] it is 110 nM.
For the molecule `Cc1noc(-c2ccc(-c3ccc(Cl)cc3)c(COc3ccc(-c4nc5cc(C(=O)O)ccc5n4C4CCCCC4)cc3)c2)n1` [Example 349, 2-{4-[2-(4-chlorophenyl)-5-(3-methyl-1,2,4-oxadiazol-5-yl)benzyloxy]phenyl}-1-cyclohexylbenzimidazole-5-carboxylic acid hydrochloride], the IC50 is 21 nM.
The figure for `O=C(O)c1ccc2c(c1)nc(-c1ccc(Oc3cccc(-c4cc(Cl)cc(Cl)c4)c3)cc1)n2C1CCCCC1` [Example 222, 1-cyclohexyl-2-{4-[3-(3,5-dichlorophenyl)phenoxy]phenyl}-benzimidazole-5-carboxylic acid] is 41 nM; for `COCCOCCOc1ccc(-c2ccc(Cl)cc2)c(COc2ccc(-c3nc4cc(C(=O)O)ccc4n3C3CCCCC3)cc2)c1` [Example 345, 2-{4-[2-(4-chlorophenyl)-5-{2-(2-methoxyethoxy)ethoxy}-benzyloxy]phenyl}-1-cyclohexylbenzimidazole-5-carboxylic acid hydrochloride] it is 12 nM; for `C[S+]([O-])c1ccc(-c2ccc(Cl)cc2)c(COc2ccc(-c3nc4cc(C(=O)O)ccc4n3C3CCCCC3)cc2)c1` (stereo not drawn) [Example 298, 2-{4-[2-(4-chlorophenyl)-5-methylsulfinylbenzyloxy]phenyl}-1-cyclohexylbenzimidazole-5-carboxylic acid] it is 11 nM.
The figure for `CN(C)C(=O)c1ccc(-c2ccc(C(N)=O)cc2)c(COc2ccc(-c3nc4cc(C(=O)O)ccc4n3C3CCCCC3)cc2)c1` [Example 307, 2-{4-[2-(4-carbamoylphenyl)-5-(dimethylcarbamoyl)benzyloxy]-phenyl}-1-cyclohexylbenzimidazole-5-carboxylic acid] is 22 nM; for `O=C(O)c1cc(OCc2ccncc2)cc(Oc2ccc(-c3nc4cc(C(=O)O)ccc4n3C3CCCCC3)cc2)c1` [Example 260, 1-cyclohexyl-2-{4-[3-carboxy-5-(4-pyridylmethoxy)phenoxy]-phenyl}benzimidazole-5-carboxylic acid dihydrochloride] it is 270 nM.
